Numbers after ± are expanded uncertainties.
Experiment: wn = mass fraction of the nth substance listed
Details: 298.15 K, 100 kPa, Liquid, Alternating current cell with electrodes

C1CC[NH2+]C1.O=[N+]([O-])[O-] [pyrrolidinium nitrate] + CC1COC(=O)O1
Details	electrical conductivity [S/m]
w1 = 0.1266	0.874 ± 0.15
w1 = 0.1348	0.927 ± 0.15
w1 = 0.1441	0.989 ± 0.15
w1 = 0.1543	1.06 ± 0.16
w1 = 0.1646	1.12 ± 0.16
w1 = 0.1788	1.24 ± 0.16
w1 = 0.1948	1.32 ± 0.17
w1 = 0.2149	1.45 ± 0.18
w1 = 0.2396	1.62 ± 0.22
w1 = 0.2529	1.7 ± 0.21
w1 = 0.2692	1.94 ± 0.23
w1 = 0.2862	2.05 ± 0.25
w1 = 0.3073	2.2 ± 0.22
w1 = 0.3274	2.32 ± 0.23
w1 = 0.3479	2.46 ± 0.23
w1 = 0.3768	2.63 ± 0.24
w1 = 0.3915	2.71 ± 0.24
w1 = 0.4212	2.86 ± 0.26
w1 = 0.4476	3.05 ± 0.26
w1 = 0.4916	3.21 ± 0.27
w1 = 0.5453	3.46 ± 0.29
w1 = 0.5834	3.62 ± 0.3
w1 = 0.6211	3.74 ± 0.3
w1 = 0.6897	3.92 ± 0.32
w1 = 0.7407	4.12 ± 0.34
w1 = 0.8065	4.28 ± 0.35
w1 = 0.8913	4.47 ± 0.36
w1 = 1	4.22 ± 0.34

Reference: the NIST ThermoML archive (doi:10.1016/j.jct.2012.11.020)
